Experimental data reported in ChEMBL document CHEMBL5725581, “Compounds and compositions for treating HIV with derivatives of Betulin” (2018).

Experiment: MT4 Cell Antiviral Assay: Antiviral HIV activity and compound-induced cytotoxicity were measured in parallel by means of a propidium iodide based procedure in the human T-cell lymphotropic virus transformed cell line MT4. Aliquots of the test compounds were serially diluted in medium (RPMI 1640, 10% fetal calf serum (FCS), and gentamycin) in 96-well plates (Costar 3598) using a Cetus Pro/Pette. …
Description: MT4 Cell Antiviral Assay: Antiviral HIV activity and compound-induced cytotoxicity were measured in parallel by means of a propidium iodide based procedure in the human T-cell lymphotropic virus transformed cell line MT4. […] Exponentially growing MT4 cells were harvested and centrifuged at 1000 rpm for 10 min in a Jouan centrifuge (model CR 4 12). […] Cell infection was allowed to proceed for 1 hr at 37° C. in a tissue culture incubator with humidified 5% CO2 atmosphere. After the 1 hr incubation the virus/cell suspensions were diluted 6-fold with fresh medium, and 125 μl of the cell suspension was added to each well of the plate containing pre-diluted compound. Plates were then placed in a tissue culture incubator with humidified 5% CO2 for 5 days. […] After thorough mixing with a Costar multitip pipetter, 60 μl of the mixture was transferred to filter-bottomed 96-well plates. The plates were analyzed in an automated assay instrument (Screen Machine, Idexx Laboratories). The control and standard used was 3′-azido-3′-deoxythymidine tested over a concentration range of 0.01 to 1 μM in every assay. […] The assay makes use of a propidium iodide dye to estimate the DNA content of each well.For MTS readout, 20 μl CellTiter 96 AQ One Solution reagent (Promega #G3582) was added to each well.

Row | SMILES | EC50 [nM] | EC50 (MT4, 10 min) [nM]
1 | CC(C)C1=C2[C@H]3CC[C@@H]4[C@@]5(C)CC[C@H](OC(=O)CC(C)(C)CC(=O)O)C(C)(C)[C@@H]5CC[C@@]4(C)[C@]3(C)CC[C@@]2([C@H](O)CNCc2ccc(Cl)cc2)CC1=O | 104 | 
2 | CC(C)NC[C@H](O)[C@@]12CC[C@]3(C)[C@H](CC[C@@H]4[C@@]5(C)CC[C@H](OC(=O)CC(C)(C)C(=O)O)C(C)(C)[C@@H]5CC[C@]43C)C1=C(C(C)C)C(=O)C2 |  | 31.5
